Experimental data from patent publication US20140094456A1, “ANTI-FIBROTIC PYRIDINONES” (InterMune, Inc., priority 2012, published 2014).

test system: Fibroblasts (primary human lung and dermal, HFL-1, 3T3 etc); assay: Cell proliferation assay: inhibitory effect on cell proliferation (BrdU incorporation) in fibroblasts; type: cell-based; conditions: HFL1, 50% inhibition of stimulant (LPA, TGFb, serum etc) induced increase of BrdU incorporation in fibroblasts
Description: Assay of Inhibitory Effect on Cell Proliferation (BrdU Incorporation)
Fibroblasts (primary human lung and dermal, HFL-1, 3T3 etc) were plated on a 96-well plate and serum starved for 24-48 hours. The media were then exchanged for media containing stimulants (LPA, TGFb, serum etc) and cultured further for 16-24 hours before BrdU addition. After culturing for another 8 hours, cells were washed with PBS and the amount of BrdU incorporated into the cells was assayed by absorbance at 450 nm using the Cell proliferation ELISA system (RPN250, Amersham LIFE SCIENCE). The difference between the amount of BrdU incorporated in the stimulant-added well and the amount of BrdU incorporated in the well containing no stimulant represented the amount of BrdU incorporation accelerated by stimulant. The increase of BrdU incorporation without the addition of test compounds was set as 100% and the concentration of compound with 50% inhibition in the increase of BrdU incorporation (IC50 value) was determined. The test compounds were added 0-30 min before stimulant addition.
(§1) Compounds of some embodiments were prepared according to synthetic methods described herein and assay data obtained for IC50 for BrdU inhibition. The assay data obtained is presented in Table 3, in which A=less than 50 μM, B=greater than or equal to 50 μM and less than or equal to 200 μM; and C=greater than 200 μM.

| SMILES | IC50 |
| --- | --- |
| COCCOCCOCCOc1ccc(-n2cc(C)ccc2=O)cc1 [Compound 21] | > 200 µM |
| O=c1c2c(ncn2C2CC2)c(-c2cn[nH]c2)cn1-c1ccc(OC(F)(F)F)cc1 [Compound 650] | < 50 µM |

test system: endothelin-1 (ET-1) production; assay: ET-1 assay: inhibitory effect on TGF-b induced endothelin-1 production in fibroblasts (ELISA); type: cell-based, human; conditions: Homo sapiens, Fibroblast, inhibition of stimulant (TGFb, serum, LPA etc) induced ET-1 production in fibroblasts
Description: Assay of Inhibitory Effect on TGF-b Induced Endothelin-1 Production
Fibroblasts (primary human lung and dermal, HFL-1, 3T3 etc) are seeded in 96-well plates at ˜15000 cells/well and serum starved for 0-48 hours. After media exchange, compounds serially diluted in DMSO are added to the cells. After a brief incubation of ˜30 min, stimulants (TGFb, serum, LPA etc) are added followed by further incubation for 16-48 hours. Media is then harvested and stored frozen in plate format for later endothelin-1 (ET-1) determination by ELISA. Toxicity measurements are made using the ATPlite kit (Perkin-Elmer). ET-1 is quantified using an ELISA kit (R&D Systems). The amount of ET-1 produced in the assay wells are back-calculated using the ELISA standard. The ability of a compound to inhibit ET-1 production is typically analyzed by fitting dose-response curves to a 4-parameter logistic function to obtain an EC50 value. A measure of cytotoxicity (CC50) is likewise reported from the same experiment using the ATPlite data.
as §1, with “EC50 against ET-1.” for “IC50 for BrdU inhibition.”, “2,” for “3,”

| SMILES | EC50 |
| --- | --- |
| COCCOCCOCCOc1cccc(-n2cc(C)ccc2=O)c1 [Compound 22] | > 200 µM |
| COCCOc1ccc(Oc2cc(=O)n(-c3ccc(OC(F)(F)F)cc3)cc2-c2cnn(C)c2)cc1 [Compound 533] | 50 to 200 µM |
| COCCOCCOCCOc1ccc(-n2cc(C)ccc2=O)cc1 [Compound 21] | > 200 µM |
| Cn1cc(-c2cn(-c3ccc(OC(F)(F)F)cc3)c(=O)cc2NC(=O)OCc2ccccc2)cn1 [Compound 140] | 50 to 200 µM |
| Cc1cc(=O)n(-c2ccc(C(F)(F)F)cc2)cc1-c1ccccc1 [Compound 170] | < 50 µM |
| CCOC(=O)Nc1cc(=O)n(-c2ccc(OC(F)(F)F)cc2)cc1-c1ccc(F)cc1 [Compound 114] | > 200 µM |
| CN1C(=O)COc2c(-c3cnn(C)c3)cn(-c3ccc(OC(F)(F)F)cc3)c(=O)c21 [Compound 396] | > 200 µM |
| CCCCOC(=O)Nc1cc(=O)n(-c2ccc(OC(F)(F)F)cc2)cc1-c1cnn(C)c1 [Compound 136] | 50 to 200 µM |
| O=c1c2c(ncn2C2CC2)c(-c2cn[nH]c2)cn1-c1ccc(OC(F)(F)F)cc1 [Compound 650] | < 50 µM |
| CC(=O)c1ccc(=O)n(-c2ccc(OC(C)C)cc2)c1 [Compound 10] | > 200 µM |

same assay, conditions: inhibition of stimulant (TGFb, serum, LPA etc) induced ET-1 production in fibroblasts

| SMILES | EC50 |
| --- | --- |
| CC(C)Oc1ccc(-n2cc(-c3ccc(F)cc3)ccc2=O)cc1 [Compound 288] | 50 to 200 µM |
